Measurements taken from publication PMC10528299, “Targeting FAK/PYK2 with SJP1602 for Anti-Tumor Activity in Triple-Negative Breast Cancer” (Current Issues in Molecular Biology, 2023).

What was measured:
Test in all cases: Eurofins kinase profiling
Assay type in all cases: biochemical
Fms(h) = target: T1, Fms(h) (Homo sapiens, UniProt P07333); settings: read-out: residual kinase activity Fms(h)
T1 construct: purchased Eurofins KinaseProfiler
How it was run: (§1)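 Panel of 110 assays under standard conditions; these protein kinases were tested in the radiometric KinaseProfiler assay at a single 1 µM compound concentration.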

[1] = target: T2, PI3 Kinase (p110a/p85a)(h) (Homo sapiens, UniProt P42336); settings: read-out: residual kinase activity PI3 Kinase (p110a/p85a)(h)
T2 construct: purchased Eurofins KinaseProfiler
How it was run: as §1

Hck(h) = target: T3, Hck(h) (Homo sapiens, UniProt P08631); settings: read-out: residual kinase activity Hck(h)
T3 construct: purchased Eurofins KinaseProfiler
How it was run: as §1

Mer(h) = target: T4, Mer(h) (Homo sapiens, UniProt Q12866); settings: read-out: residual kinase activity Mer(h)
T4 construct: purchased Eurofins KinaseProfiler
T4 sequence (Q12866 21-999): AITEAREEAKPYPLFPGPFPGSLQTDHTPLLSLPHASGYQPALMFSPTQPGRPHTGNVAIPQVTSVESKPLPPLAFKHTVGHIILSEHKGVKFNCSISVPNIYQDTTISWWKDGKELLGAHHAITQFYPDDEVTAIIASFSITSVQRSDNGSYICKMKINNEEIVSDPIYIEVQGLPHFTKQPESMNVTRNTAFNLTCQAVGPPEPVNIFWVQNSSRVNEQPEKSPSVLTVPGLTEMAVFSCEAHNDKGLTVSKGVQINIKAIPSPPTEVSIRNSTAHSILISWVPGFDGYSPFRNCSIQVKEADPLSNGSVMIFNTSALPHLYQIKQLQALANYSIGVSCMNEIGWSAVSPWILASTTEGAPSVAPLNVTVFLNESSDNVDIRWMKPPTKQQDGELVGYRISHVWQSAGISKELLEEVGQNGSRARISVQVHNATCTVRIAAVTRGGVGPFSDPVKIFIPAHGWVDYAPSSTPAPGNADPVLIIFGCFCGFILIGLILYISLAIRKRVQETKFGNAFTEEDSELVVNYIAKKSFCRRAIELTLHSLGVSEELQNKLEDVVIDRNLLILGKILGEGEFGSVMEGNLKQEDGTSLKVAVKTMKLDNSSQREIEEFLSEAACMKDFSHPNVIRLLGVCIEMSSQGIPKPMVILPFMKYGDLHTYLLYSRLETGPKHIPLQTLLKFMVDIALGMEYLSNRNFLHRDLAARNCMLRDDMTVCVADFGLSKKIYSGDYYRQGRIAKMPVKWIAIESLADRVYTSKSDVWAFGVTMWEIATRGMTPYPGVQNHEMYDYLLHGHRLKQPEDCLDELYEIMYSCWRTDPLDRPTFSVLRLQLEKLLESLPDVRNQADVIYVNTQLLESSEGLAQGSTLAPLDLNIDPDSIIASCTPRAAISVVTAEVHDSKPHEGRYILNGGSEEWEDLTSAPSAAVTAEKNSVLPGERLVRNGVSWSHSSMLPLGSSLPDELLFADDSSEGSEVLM
How it was run: as §1

CDK1/cyclinB(h) = target: T5, CDK1/cyclinB(h) (Homo sapiens, UniProt P06493); settings: read-out: residual kinase activity CDK1/cyclinB(h)
T5 construct: purchased Eurofins KinaseProfiler
T5 sequence (P06493 whole entry): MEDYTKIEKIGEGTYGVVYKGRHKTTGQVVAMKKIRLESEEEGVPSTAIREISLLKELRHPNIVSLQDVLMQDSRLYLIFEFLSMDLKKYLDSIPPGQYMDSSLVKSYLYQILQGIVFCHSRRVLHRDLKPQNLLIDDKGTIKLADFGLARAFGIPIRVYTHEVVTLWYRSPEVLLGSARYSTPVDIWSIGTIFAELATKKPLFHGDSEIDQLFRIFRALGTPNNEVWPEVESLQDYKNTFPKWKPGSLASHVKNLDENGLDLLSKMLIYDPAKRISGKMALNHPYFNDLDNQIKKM
T5 sequence (P14635 whole entry partner): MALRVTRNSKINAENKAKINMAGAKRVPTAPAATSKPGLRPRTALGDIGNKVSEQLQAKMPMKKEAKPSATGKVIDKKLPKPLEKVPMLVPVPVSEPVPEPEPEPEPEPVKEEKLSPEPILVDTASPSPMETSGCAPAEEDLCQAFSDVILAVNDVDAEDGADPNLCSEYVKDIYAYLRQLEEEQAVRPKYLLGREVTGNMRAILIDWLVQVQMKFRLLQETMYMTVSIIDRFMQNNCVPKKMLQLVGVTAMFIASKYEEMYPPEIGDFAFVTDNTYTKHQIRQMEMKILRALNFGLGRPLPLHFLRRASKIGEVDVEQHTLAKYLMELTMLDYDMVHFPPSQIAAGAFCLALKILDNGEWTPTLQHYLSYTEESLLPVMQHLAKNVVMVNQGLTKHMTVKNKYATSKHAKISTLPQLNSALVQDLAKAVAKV
How it was run: as §1

[2] = target: T6, PI3 Kinase (p110a(H1047R)/p85a)(h) (Homo sapiens, UniProt P42336, H1047R); settings: read-out: residual kinase activity PI3 Kinase (p110a(H1047R)/p85a)(h)
T6 construct: purchased Eurofins KinaseProfiler
How it was run: as §1

ATM(h) = target: T7, ATM(h) (Homo sapiens, UniProt Q13315); settings: read-out: residual kinase activity ATM(h)
T7 construct: purchased Eurofins KinaseProfiler
T7 sequence (Q13315 whole entry): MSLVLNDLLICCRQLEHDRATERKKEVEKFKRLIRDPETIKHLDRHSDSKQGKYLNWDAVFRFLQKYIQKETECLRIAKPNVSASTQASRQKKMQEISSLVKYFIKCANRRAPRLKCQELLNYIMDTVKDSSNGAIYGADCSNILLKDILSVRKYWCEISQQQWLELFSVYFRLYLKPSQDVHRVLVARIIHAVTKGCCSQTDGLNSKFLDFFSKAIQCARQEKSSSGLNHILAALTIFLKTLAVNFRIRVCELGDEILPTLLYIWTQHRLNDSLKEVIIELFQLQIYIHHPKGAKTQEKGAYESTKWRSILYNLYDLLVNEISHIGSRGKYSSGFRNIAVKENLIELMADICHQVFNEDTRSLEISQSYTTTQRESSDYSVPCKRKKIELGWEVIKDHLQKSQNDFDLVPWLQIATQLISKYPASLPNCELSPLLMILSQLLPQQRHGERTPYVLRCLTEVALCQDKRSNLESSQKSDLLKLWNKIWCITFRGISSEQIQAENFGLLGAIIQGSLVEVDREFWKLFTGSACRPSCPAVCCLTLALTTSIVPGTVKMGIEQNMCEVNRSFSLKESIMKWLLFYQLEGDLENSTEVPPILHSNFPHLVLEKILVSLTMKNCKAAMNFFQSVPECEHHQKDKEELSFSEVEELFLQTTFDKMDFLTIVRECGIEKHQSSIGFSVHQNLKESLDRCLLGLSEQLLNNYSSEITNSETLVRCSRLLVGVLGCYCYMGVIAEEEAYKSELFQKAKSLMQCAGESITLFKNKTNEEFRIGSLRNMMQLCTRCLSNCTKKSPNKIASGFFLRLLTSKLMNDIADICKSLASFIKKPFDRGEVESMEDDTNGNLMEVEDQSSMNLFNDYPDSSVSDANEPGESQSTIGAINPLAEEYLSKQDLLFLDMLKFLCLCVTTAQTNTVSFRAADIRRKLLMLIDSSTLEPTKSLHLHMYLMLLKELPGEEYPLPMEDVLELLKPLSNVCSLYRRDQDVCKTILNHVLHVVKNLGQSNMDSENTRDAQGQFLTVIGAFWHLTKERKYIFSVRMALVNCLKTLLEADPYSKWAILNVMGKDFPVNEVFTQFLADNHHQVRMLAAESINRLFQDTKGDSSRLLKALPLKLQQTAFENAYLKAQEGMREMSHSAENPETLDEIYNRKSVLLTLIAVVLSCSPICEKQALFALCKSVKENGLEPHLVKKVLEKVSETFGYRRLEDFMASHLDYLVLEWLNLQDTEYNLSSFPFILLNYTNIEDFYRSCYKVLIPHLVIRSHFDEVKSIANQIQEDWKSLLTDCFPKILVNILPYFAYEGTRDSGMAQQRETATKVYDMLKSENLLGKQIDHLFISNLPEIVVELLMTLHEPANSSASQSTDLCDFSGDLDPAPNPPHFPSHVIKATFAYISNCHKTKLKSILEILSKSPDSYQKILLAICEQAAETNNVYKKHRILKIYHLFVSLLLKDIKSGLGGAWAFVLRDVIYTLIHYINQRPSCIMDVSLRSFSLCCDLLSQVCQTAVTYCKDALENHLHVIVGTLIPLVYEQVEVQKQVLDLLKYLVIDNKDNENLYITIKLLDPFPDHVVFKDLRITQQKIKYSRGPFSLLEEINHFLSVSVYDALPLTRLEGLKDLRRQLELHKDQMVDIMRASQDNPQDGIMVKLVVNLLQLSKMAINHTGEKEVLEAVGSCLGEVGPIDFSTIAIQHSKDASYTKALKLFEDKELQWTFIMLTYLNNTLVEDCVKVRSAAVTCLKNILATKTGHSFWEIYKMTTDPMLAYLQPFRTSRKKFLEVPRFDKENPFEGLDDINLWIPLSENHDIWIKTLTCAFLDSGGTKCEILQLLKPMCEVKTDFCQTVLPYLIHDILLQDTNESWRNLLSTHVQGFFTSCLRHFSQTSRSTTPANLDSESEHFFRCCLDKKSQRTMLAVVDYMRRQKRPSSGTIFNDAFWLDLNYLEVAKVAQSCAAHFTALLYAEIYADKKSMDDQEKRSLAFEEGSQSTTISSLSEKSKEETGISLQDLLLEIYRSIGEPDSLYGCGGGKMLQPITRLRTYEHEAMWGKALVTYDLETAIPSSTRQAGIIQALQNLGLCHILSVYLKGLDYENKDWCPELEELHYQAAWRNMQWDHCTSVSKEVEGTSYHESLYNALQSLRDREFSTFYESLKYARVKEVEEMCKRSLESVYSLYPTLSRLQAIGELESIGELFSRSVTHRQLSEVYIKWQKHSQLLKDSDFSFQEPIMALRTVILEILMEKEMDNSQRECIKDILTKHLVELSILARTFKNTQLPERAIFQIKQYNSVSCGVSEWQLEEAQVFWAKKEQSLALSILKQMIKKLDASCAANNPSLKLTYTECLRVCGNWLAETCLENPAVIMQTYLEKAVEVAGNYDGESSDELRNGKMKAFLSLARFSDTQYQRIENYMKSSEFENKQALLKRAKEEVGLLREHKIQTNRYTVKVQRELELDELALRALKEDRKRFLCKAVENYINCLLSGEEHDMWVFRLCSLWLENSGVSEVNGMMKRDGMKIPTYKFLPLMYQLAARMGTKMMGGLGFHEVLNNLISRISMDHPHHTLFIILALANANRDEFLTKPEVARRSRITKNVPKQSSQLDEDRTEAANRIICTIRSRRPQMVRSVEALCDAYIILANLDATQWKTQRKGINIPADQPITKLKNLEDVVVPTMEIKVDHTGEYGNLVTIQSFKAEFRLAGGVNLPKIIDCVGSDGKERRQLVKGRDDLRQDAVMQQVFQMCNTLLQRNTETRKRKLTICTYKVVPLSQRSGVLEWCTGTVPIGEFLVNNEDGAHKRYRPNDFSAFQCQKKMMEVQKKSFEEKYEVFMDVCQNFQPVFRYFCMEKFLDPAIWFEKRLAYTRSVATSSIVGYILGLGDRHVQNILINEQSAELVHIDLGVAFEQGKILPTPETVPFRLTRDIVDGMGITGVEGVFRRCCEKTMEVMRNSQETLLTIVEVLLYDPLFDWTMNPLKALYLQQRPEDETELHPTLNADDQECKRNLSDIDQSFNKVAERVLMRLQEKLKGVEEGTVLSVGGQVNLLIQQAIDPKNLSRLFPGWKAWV
How it was run: as §1

cKit(D816H)(h) = target: T8, cKit(D816H)(h) (Homo sapiens, UniProt P10721, D816H); settings: read-out: residual kinase activity cKit(D816H)(h)
T8 construct: purchased Eurofins KinaseProfiler
How it was run: as §1

Tie2 (h) = target: T9, Tie2 (h) (Homo sapiens, UniProt Q02763); settings: read-out: residual kinase activity Tie2 (h)
T9 construct: purchased Eurofins KinaseProfiler
How it was run: as §1

CHK1(h) = target: T10, CHK1(h) (Homo sapiens, UniProt O14757); settings: read-out: residual kinase activity CHK1(h)
T10 construct: purchased Eurofins KinaseProfiler
T10 sequence (O14757 1-476): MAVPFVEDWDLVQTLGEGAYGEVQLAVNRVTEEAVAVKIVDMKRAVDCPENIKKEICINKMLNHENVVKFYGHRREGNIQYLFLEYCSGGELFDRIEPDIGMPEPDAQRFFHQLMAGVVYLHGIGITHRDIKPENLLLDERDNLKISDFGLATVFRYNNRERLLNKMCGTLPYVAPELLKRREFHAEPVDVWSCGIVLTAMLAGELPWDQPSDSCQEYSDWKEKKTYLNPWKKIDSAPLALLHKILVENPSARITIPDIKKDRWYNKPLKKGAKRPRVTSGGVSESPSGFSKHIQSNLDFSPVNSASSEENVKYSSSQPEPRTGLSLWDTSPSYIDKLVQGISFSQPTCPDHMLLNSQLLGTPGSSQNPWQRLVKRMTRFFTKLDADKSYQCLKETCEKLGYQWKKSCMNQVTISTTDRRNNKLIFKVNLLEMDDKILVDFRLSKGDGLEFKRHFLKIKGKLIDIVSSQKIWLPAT
How it was run: as §1

CDK2/cyclinA(h) = target: T11, CDK2/cyclinA(h) (Homo sapiens, UniProt P24941); settings: read-out: residual kinase activity CDK2/cyclinA(h)
T11 construct: purchased Eurofins KinaseProfiler
How it was run: as §1

T1 sequence (P07333 20-972): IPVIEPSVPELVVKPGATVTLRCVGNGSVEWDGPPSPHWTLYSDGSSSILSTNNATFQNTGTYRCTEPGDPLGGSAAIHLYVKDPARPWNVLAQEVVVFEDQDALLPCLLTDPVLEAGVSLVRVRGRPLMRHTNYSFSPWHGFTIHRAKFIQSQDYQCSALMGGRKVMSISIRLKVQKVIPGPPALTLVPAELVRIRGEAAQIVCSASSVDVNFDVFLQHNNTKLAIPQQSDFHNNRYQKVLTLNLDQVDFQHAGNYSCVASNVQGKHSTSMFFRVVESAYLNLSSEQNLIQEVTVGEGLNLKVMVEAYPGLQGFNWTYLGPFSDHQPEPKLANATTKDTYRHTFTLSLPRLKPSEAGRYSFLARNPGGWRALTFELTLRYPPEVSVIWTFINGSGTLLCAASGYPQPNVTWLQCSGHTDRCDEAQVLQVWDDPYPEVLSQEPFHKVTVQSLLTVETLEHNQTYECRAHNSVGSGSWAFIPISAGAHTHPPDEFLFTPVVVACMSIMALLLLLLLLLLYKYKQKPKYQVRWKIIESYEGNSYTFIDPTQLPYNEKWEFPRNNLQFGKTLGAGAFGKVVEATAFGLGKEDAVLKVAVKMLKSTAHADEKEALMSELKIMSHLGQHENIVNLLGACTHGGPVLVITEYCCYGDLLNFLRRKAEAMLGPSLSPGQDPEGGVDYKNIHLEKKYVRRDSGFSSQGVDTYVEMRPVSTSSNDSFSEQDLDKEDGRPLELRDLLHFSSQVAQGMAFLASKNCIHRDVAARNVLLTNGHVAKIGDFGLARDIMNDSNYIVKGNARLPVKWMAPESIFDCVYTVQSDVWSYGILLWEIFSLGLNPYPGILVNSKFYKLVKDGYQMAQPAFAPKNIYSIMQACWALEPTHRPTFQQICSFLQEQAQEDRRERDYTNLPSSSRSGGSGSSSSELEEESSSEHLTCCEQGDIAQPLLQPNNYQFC

Row | remaining activity at 1 µM (Fms(h)) | remaining activity at 1 µM [1] | remaining activity at 1 µM (Hck(h)) | remaining activity at 1 µM (Mer(h)) | remaining activity at 1 µM (CDK1/cyclinB(h)) | remaining activity at 1 µM [2] | remaining activity at 1 µM (ATM(h)) | remaining activity at 1 µM (cKit(D816H)(h)) | remaining activity at 1 µM (Tie2 (h)) | remaining activity at 1 µM (CHK1(h)) | remaining activity at 1 µM (CDK2/cyclinA(h)) | Compound
1 | 88% | 83% | 100% | 97% | 97% | 97% | 94% | 98% | 108% | 85% | 94% | CONC(=O)c1ccccc1Nc1cc(Nc2cc(C)nn2C(C)C)ncc1Cl [GSK2256098]
2 | 67% | 103% | 99% | 7% | 14% | 101% | 63% | 94% | 82% | 58% | 28% | CNC(=O)c1ccc(Nc2ncc(C(F)(F)F)c(NCc3nccnc3N(C)S(C)(=O)=O)n2)cc1 [VS-6063, Defactinib]

Row | Compound | remaining activity at 1 µM (Fms(h)) | remaining activity at 1 µM [1] | remaining activity at 1 µM (Hck(h)) | remaining activity at 1 µM (Mer(h)) | remaining activity at 1 µM (CDK1/cyclinB(h)) | remaining activity at 1 µM [2] | remaining activity at 1 µM (ATM(h)) | remaining activity at 1 µM (cKit(D816H)(h)) | remaining activity at 1 µM (Tie2 (h)) | remaining activity at 1 µM (CHK1(h)) | remaining activity at 1 µM (CDK2/cyclinA(h))
3 | CNC(=O)c1cccc(C)c1Nc1nc(Nc2ccc(N3CCN(C4C5CC6CC4CC(O)(C6)C5)CC3)cc2OC)ncc1C(F)(F)F (stereo not drawn) [SJP1602, 2-((2-((4-(4-((2s,5r)-5-hydroxyadamantan-2-yl)piperazin-1-yl)-2-methoxyphenyl)amino)-5-(trifluoromethyl)pyrimidin-4-yl)amino)-N,3-dimethylbenzamide] | 85% | 104% | 105% | 60% | 88% | 97% | 98% | 124% | 105% | 62% | 85%
